Tests used:
Format in all cases: cell-based
SNU638 (gastric cancer) = assay: SRB cell growth inhibition assay, SNU638; conditions: Homo sapiens, SNU-638, 96 hours, read-out: concentration of the drug to inhibit the cell growth by 50%
Excerpt: [Worded in the source for another cell line; this cell line is reported under the same test.] (§1) Measurement of the Growth Inhibition Ability Against Cancer Cells
(§2) Human cancer cell strains were obtained through the following paths: OVCAR-3 (ovarian cancer), MCF-7 (hormone dependent breast cancer), MDA-MB-231 (breast cancer), HeLa (cervical cancer), PC3 (prostate cancer), LNCap (prostate cancer), HepG2 (liver cancer), A549 (lung cancer), NCI-H226 (lung cancer), Caki-1 (kidney cancer), SK-MEL-28 (melanoma cancer), HT-29 (colorectal cancer), HCT116 (colorectal cancer) and PANC-1 (pancreas cancer) cells were purchased from American Type Culture Collection (ATCC) (Manassas, Va.); U251(brain tumor) cells were purchased from Riken Institutes, Marunouchi, Tokyo, Japan; MKN-45 (gastric cancer) cells were purchased from DSMZ (Germany); and UMRC2 (kidney cancer) cells were purchased from U.S. National Cancer Institute (Bethesda, Md.).
(§3) MDA-MB-231, HCT116, UMRC2, Caki-1 and PANC-1 cells were cultured in Dulbecco's modified Eagle's medium (“DMEM”, Invitrogen) including 10% FBS, 100 units/mL penicillin-streptomycin (P/S), 10 mM HEPES and 2 mM L-glutamine. All the other cell strains were cultured in RPMI1640 medium (Invitrogen, Carlsbad, Calif.) including 10% fetal bovine serum (FBS), 1 mM sodium pyruvate, 10 mM HEPES, and 100 units/mL penicillin-streptomycin (P/S). All cells were cultured at 37° C. 5% CO2 humid conditions.
(§4) The cell growth inhibition level of the novel compound synthesized using (1S,2R,5S)-5-(6-Aminopurine-9-yl)-4-fluoro-3-hydroxyethyl-cyclopent-3(4)-en-1,2-diol (compound of Formula 1 where X is NH2 and R2 is H) prepared in the above Example 3, (1S,2R,5S)-4-Fluoro-3-hydroxyethyl-5-(uracil-1-yl)-cyclopent-3(4)-en-1,2-diol (Compound 10) prepared in the above Example 4, (1S,2R,5S)-5-(Cytosine-1-yl)-4-fluoro-3-hydroxyethyl-cyclopent-3(4)-en-1,2-diol (Compound 11) prepared in the above Example 5, Fluoro-neplanocin A, and Homoneplanocin A was analyzed by SRB (sulphorhodamine B) assay according to the publicly known method in the literature.
(§5) Human cancer cell strains increased exponentially were divided into the 96-well plates at the density of 2×10^3 to 3×10^3 cells/well and processed with the compounds of the various concentrations in the present invention on the next day. 0.25% DMSO was used as a control group. Three experiments were performed for each process. The cells were fixed with 10% trichloro-acetic acid at 96 hours after processing with the compound and SRB analysis was carried out. Optical density was measured at 530 nm with Benchmark PlusMicroplate Reader (Bio-Rad Laboratories, Hercules, Calif.). The concentration of the drug to inhibit the cell growth by 50% […] was measured with Kaledia Graph (Synergy software, Reading, Pa.).

A549 (lung cancer) = assay: SRB cell growth inhibition assay, A549; conditions: Homo sapiens, 96 hours, read-out: concentration of the drug to inhibit the cell growth by 50%
Excerpt: as §1, §2, §3, §4, §5

PC-3 (prostate cancer) = assay: SRB cell growth inhibition assay, PC-3; conditions: Homo sapiens, 96 hours, read-out: concentration of the drug to inhibit the cell growth by 50%
Excerpt: as §1, §2, §3, §4, §5

T47D (breast cancer) = assay: SRB cell growth inhibition assay, T47D; conditions: Homo sapiens, 96 hours, read-out: concentration of the drug to inhibit the cell growth by 50%
Excerpt: [Worded in the source for another cell line; this cell line is reported under the same test.] as §1, §2, §3, §4, §5

K562 (blood cancer) = assay: SRB cell growth inhibition assay, K562; conditions: Homo sapiens, 96 hours, read-out: concentration of the drug to inhibit the cell growth by 50%
Excerpt: [Worded in the source for another cell line; this cell line is reported under the same test.] as §1, §2, §3, §4, §5

[1] = system: HCT-116 (colorectal cancer); assay: SRB cell growth inhibition assay, HCT-116; conditions: Homo sapiens, 96 hours, read-out: concentration of the drug to inhibit the cell growth by 50%
Excerpt: as §1, §2, §3, §4, §5

SMILES | IC50 (SNU638 (gastric cancer)) | IC50 (A549 (lung cancer)) | IC50 (PC-3 (prostate cancer)) | IC50 (T47D (breast cancer)) | IC50 (K562 (blood cancer)) | IC50 [1]
Nc1ncnc2c1ncn2C1C=C(CCO)C(O)C1O (stereo not drawn) [Homoneplanocin A] | > 10 µM | > 10 µM | > 10 µM | > 10 µM | > 10 µM | > 10 µM
Nc1ccn([C@@H]2C(F)=C(CCO)[C@@H](O)[C@H]2O)c(=O)n1 [Compound 11, (1S,2R,5S)-5-(Cytosine-1-yl)-4-fluoro-3-hydroxyethyl-cyclopent-3(4)-en-1,2-diol] | > 10 µM | > 10 µM | > 10 µM | > 10 µM | > 10 µM | > 10 µM

More lines, now with the values ahead:

IC50 (SNU638 (gastric cancer)) | IC50 (A549 (lung cancer)) | IC50 (PC-3 (prostate cancer)) | IC50 (T47D (breast cancer)) | IC50 (K562 (blood cancer)) | IC50 [1] | SMILES
1.3 µM | 2.6 µM | 3.1 µM | 3.6 µM | 2.2 µM | 1.4 µM | Nc1ncnc2c1ncn2C1C(F)=C(CO)C(O)C1O (stereo not drawn) [Fluoro-neplanocin A, reference compound]
> 10 µM | > 10 µM | > 10 µM | > 10 µM | > 10 µM | > 10 µM | O=c1ccn([C@@H]2C(F)=C(CCO)[C@@H](O)[C@H]2O)c(=O)[nH]1 [Compound 10, (1S,2R,5S)-4-Fluoro-3-hydroxyethyl-5-(uracil-1-yl)-cyclopent-3(4)-en-1,2-diol]
0.37 µM | 0.62 µM | 2.39 µM | 2.83 µM | 0.13 µM | 1.1 µM | Nc1ncnc2c1ncn2[C@@H]1C(F)=C(CCO)[C@@H](O)[C@H]1O [Compound of Formula 1, (1S,2R,5S)-5-(6-Aminopurine-9-yl)-4-fluoro-3-hydroxyethyl-cyclopent-3(4)-en-1,2-diol]
